Measurements published in ChEMBL document CHEMBL1158655, “Plant anticancer agents. IX. Constituents of Hyptis tomentosa” (1979).
Values after ≈ are worked out from the molar mass of the structure shown.

What follows are molecules tested on KB (assay: Cytotoxicity against human KB cells). Conditions: read-out: ED50 (the source's name).
Format: functional

Row | Compound | EC50 [µg/mL]
1 | COc1ccc(-c2cc(=O)c3c(O)c(OC)c(OC)cc3o2)cc1OC | > 100
2 | COc1ccc(-c2oc3c(OC)c(OC)c(OC)c(O)c3c(=O)c2OC)cc1 [5-HYDROXYAURANETIN] | 1.8 (≈ 4.63 µM)
3 | COc1cc([C@@H]2c3cc4c(cc3C[C@H]3COC(=O)[C@@H]32)OCO4)cc(OC)c1OC [DESOXYPODOPHYLLOTOXIN] | 0.032 (≈ 0.0803 µM)
4 | COc1ccc(-c2cc(=O)c3c(O)c(OC)c(OC)cc3o2)cc1O [EUPATORIN] | > 50
5 | COc1ccc(-c2cc(=O)c3c(O)c(OC)c(OC)c(OC)c3o2)cc1 [GARDENIN B] | 6 (≈ 16.7 µM)
6 | c1cc2c(cc1[C@H]1OC[C@H]3[C@@H]1CO[C@@H]3c1ccc3c(c1)OCO3)OCO2 [SESAMIN] | > 100
